Experimental findings from US7465783B2, “Plant peptide with antimicrobial activity” (Centre National de la Recherche Scientifique, priority 2002, dated 2008) are described below.

Ends that are not written are not given here.

Common to all, as to format: cell-based
The test system of data set [1] is Escherichia coli Strain DH5α. Put plainly: Antimicrobial (bacteriostatic) activity, peptide drops on TOPagar lawn. The procedure:
(§1) Toxicity experiments on the peptide of 25 amino acids (SUP 25) purified in the preceding example on different bacteria were carried out. The different bacteria are cultured in 5 ml of LB medium or of medium appropriate to the strain, and then sedimented by centrifugation at 3000 g, and finally taken up in a volume of LB identical to the volume of bacteria. 50 μl of bacteria are inoculated into 9 ml of liquid TOPagar (LB+7 g/l of bactoagar) at 48° C. and rapidly poured into a square LB agar dish of 10 cm on each side. The drops of 10 μl of different concentrations of peptides are deposited on the solidified ToPagar. The dish is cultured for 16 hours. Cecropin A at 20 μM, an insect peptide recognized as having antibacterial activity, serves as a positive control.

The test system of data set [2] is Xanthomonas campestris pv campestris strain 8004. The data set is described as above. The procedure:
as §1

Data set [3] concerns Pseudomonas syringae pv tomato strain DC3000. Described as above. The procedure:
as §1

For data set [4], the system named is protoplasts of Arabidopsis thaliana. An excerpt:
This experiment has the aim of determining whether the effect of the peptide on the viability of the protoplasts of Arabidopsis thaliana corresponds to the cell necrosis or else to the implementation of the process of programmed cell death or apoptosis.
Apoptosis is distinguished from necrosis by a rigorous staging of death, punctuated by a set of genetically controlled events (Vaux and Korsmeyer (Cell, 1999, 96: 245-254); Pennell and Lamb (Plant Cell, 1997, 9: 1157-1168); Greenberg (P.N.A.S., 1996, 93: 12094-12097)). […] The TUNEL reaction allows the free 3′OH ends present in great quantity in the nuclei whose DNA is fragmented in the course of the process of apoptosis to be labeled.
The external application of the peptide of 25 amino acids to protoplasts of Arabidopsis thaliana at 5 μM for 2 hours allows an increase in the population of positive TUNEL protoplasts to be observed (FIG. 5B). 4 times more nuclei show DNA fragmentation characteristics with respect to the control.

Take Cecropin A [reference compound]: the “Cecropin A 20 μM (positive control, antibacterial activity)” value in data set [1], in data set [2] and in data set [3] was “Positive” each time.

Regarding MWWLVGLTPVELIHLCAFRERLSHL [Pep1S], the “cytotoxic activity (fragmentation of nuclear DNA, TUNEL), in words” value in data set [4] is reported as “no longer has cytotoxic activity”.

On to MWWLVGLTPVELIHLSAFRERLSHL [Pep2S], for which the “cytotoxic activity (fragmentation of nuclear DNA, TUNEL), in words” value in data set [4] is given as “has a cytotoxic activity”.
